In patent US8088930B2, “Benzimidazole derivatives” (Hoffmann-La Roche Inc., priority 2008, dated 2012):
Read-outs that look alike come from different tables or passages of the source.

Target: T1, FXR ligand binding domain (GST-FXR LBD fusion protein, human FXR aa 193-473) (Homo sapiens, UniProt Q96RI1)
T1 construct: fused on or other part: Glutathione-S-transferase (GST) fused N-terminally to the FXR LBD, used to capture the protein on glutathione SPA beads
T1 sequence (Q96RI1 211-486 limits assumed): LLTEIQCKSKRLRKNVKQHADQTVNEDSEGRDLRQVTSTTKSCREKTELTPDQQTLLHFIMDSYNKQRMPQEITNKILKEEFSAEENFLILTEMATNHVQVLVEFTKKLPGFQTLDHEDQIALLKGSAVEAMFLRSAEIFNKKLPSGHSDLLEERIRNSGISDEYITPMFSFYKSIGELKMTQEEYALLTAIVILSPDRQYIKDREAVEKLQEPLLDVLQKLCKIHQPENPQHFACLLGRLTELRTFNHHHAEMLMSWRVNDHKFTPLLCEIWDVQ
Assay: Radioligand binding assay (scintillation proximity, radioligand displacement)
Conditions: 40 nM GST-FXR LBD on SPA beads, test compound 6×10^−9 M to 2.5×10^−5 M
Protocol: The following tests were carried out in order to determine the activity of the compounds of formula (I).
To accomplish this, the portions of the sequences encoding the FXR LBD were amplified by polymerase chain reaction (PCR) from a full-length clone by PCR and then subcloned into the plasmid vectors. The final clone was verified by DNA sequence analysis.
The induction, expression, and subsequent purification of GST-LBD fusion protein was performed in E. coli strain BL21(pLysS) cells by standard methods (Current Protocols in Molecular Biology, Wiley Press, ed. Ausubel et al.).
Radioligand Binding Assay
Binding of test substances to the FXR ligand binding domain was assessed in a radioligand displacement assay. The assay was performed in a buffer consisting of 50 mM Hepes, pH 7.4, 10 mM NaCl, 5 mM MgCl2, 0.01% CHAPS. For each reaction well in a 96-well plate, 40 nM of GST-FXR LBD fusion protein was bound to 10 μg glutathione yttrium silicate SPA beads (Pharmacia Amersham) in a final volume of 50 μl by shaking. A radioligand (e.g., 20 nM of 2,N-dicyclohexyl-2-[2-(2,4 dimethoxy-phenyl)-benzoimidazol-1-yl]-acetamide) and test compounds were added, and scintillation proximity counting was performed. All binding assays were performed in 96-well plates and the amount of bound ligand was measured on a Packard TopCount using OptiPlates (Packard).

Structure (SMILES) | IC50 (read-out: h-IC50 Binding) [µM] | IC50 (h-IC50 Binding) [µM]
O=C(O)C1CCC(NCC(C2CCCCC2)n2c(-c3ccc(Cl)cc3)nc3cc(F)c(F)cc32)CC1 (single isomer, unassigned) [Example 137, (+) or (−)-4-{2-[2-(4-Chloro-phenyl)-5,6-difluoro-benzoimidazol-1-yl]-(2-cis-cyclohexyl-ethylamino}-cyclohexanecarboxylic acid] | 6.1 | 
O=C(O)C1CCC(NCC(C2CCCCC2)n2c(-c3ccc(Cl)cc3)nc3cc(F)c(F)cc32)CC1 (single isomer, unassigned) [Example 138, (+) or (−)-4-{2-[2-(4-Chloro-phenyl)-5,6-difluoro-benzoimidazol-1-yl]-(2-trans-cyclohexyl-ethylamino}-cyclohexanecarboxylic acid] | 0.3 | 
O=C(O)c1ccc(OCC(C2CCCCC2)n2c(-c3ccc(Cl)cc3)nc3cc(F)c(F)cc32)cc1 (single isomer, unassigned; (+)) [Example 5, (+)-4-{2-[2-(4-Chloro-phenyl)-5,6-difluoro-benzoimidazol-1-yl]-2-cyclohexyl-ethoxy}-benzoic acid] |  | 0.04
O=C(O)c1ccc(OCC(C2CCCCC2)n2c(-c3ccc(Cl)cc3)nc3cc(F)c(F)cc32)c(F)c1 (single isomer, unassigned; (+)) [Example 9, (+)-4-{2-[2-(4-Chloro-phenyl)-5,6-difluoro-benzoimidazol-1-yl]-2-cyclohexyl-ethoxy}-3-fluoro-benzoic acid] | 0.1 | 
Cc1cc(C(=O)O)ccc1OCC(C1CCCCC1)n1c(-c2ccc(Cl)cc2)nc2cc(F)c(F)cc21 (single isomer, unassigned; (+)) [Example 13, (+)-4-{2-[2-(4-Chloro-phenyl)-5,6-difluoro-benzoimidazol-1-yl]-2-cyclohexyl-ethoxy}-3-methyl-benzoic acid] | 0.1 | 
O=C(O)c1cnc(OCC(C2CCCCC2)n2c(-c3ccc(Cl)cc3)nc3cc(F)c(F)cc32)c2ccsc12 (single isomer, unassigned; (+)) [Example 27, (+)-4-{2-[2-(4-Chloro-phenyl)-5,6-difluoro-benzoimidazol-1-yl]-2-cyclohexyl-ethoxy}-thieno[3,2-c]pyridine-7-carboxylic acid] | 0.3 | 
O=C(O)c1ccc(OCC(C2CCCCC2)n2c(-c3ccc(Cl)cc3)nc3cc(F)c(F)cc32)c(C(F)(F)F)c1 (single isomer, unassigned; (+)) [Example 40, (+)-4-{2-[2-(4-Chloro-phenyl)-5,6-difluoro-benzoimidazol-1-yl]-2-cyclohexyl-ethoxy}-3-trifluoromethyl-benzoic acid] | 0.1 | 
O=C(O)c1c(F)cc(OCC(C2CCCCC2)n2c(-c3ccc(Cl)cc3)nc3cc(F)c(F)cc32)cc1F (single isomer, unassigned; (+)) [Example 43, (+)-4-{2-[2-(4-Chloro-phenyl)-5,6-difluoro-benzoimidazol-1-yl]-2-cyclohexyl-ethoxy}-2,6-difluoro-benzoic acid] | 0.7 | 
CC(C)(Oc1ccc(OCC(C2CCCCC2)n2c(-c3ccc(Cl)cc3)nc3cc(F)c(F)cc32)nc1)C(=O)O (single isomer, unassigned; (+)) [Example 48, (+)-2-(6-{2-[2-(4-Chloro-phenyl)-5,6-difluoro-benzoimidazol-1-yl]-2-cyclohexyl-ethoxy}-pyridin-3-yloxy)-2-methyl-propionic acid] | 0.5 | 
O=C(O)C1(Oc2ccc(OCC(C3CCCCC3)n3c(-c4ccc(Cl)cc4)nc4cc(F)c(F)cc43)nc2)CC1 (single isomer, unassigned; (+)) [Example 52, (+)-1-(6-{2-[2-(4-Chloro-phenyl)-5,6-difluoro-benzoimidazol-1-yl]-2-cyclohexyl-ethoxy}-pyridin-3-yloxy)-cyclopropanecarboxylic acid] | 0.08 | 
Cc1cc(C(=O)O)cc(C)c1OCC(C1CCCCC1)n1c(-c2ccc(Cl)cc2)nc2cc(F)c(F)cc21 (single isomer, unassigned; (+)) [Example 54, (+)-4-{2-[2-(4-Chloro-phenyl)-5,6-difluoro-benzoimidazol-1-yl]-2-cyclohexyl-ethoxy}-3,5-dimethyl-benzoic acid] | 0.1 | 
Fc1cc2nc(-c3ccc(Cl)cc3)n(C(COc3ccc(-c4nnn[nH]4)cn3)C3CCCCC3)c2cc1F (single isomer, unassigned; (+)) [Example 62, (+)-2-(4-Chloro-phenyl)-1-{1-cyclohexyl-2-[5-(1H-tetrazol-5-yl)-pyridin-2-yloxy]-ethyl}-5,6-difluoro-1H-benzoimidazole] | 0.2 | 
O=C(O)c1ccc(COCC(C2CCCCC2)n2c(-c3ccc(Cl)cc3)nc3cc(F)c(F)cc32)c(F)c1 (single isomer, unassigned; (+)) [Example 64, (+)-4-{2-[2-(4-Chloro-phenyl)-5,6-difluoro-benzoimidazol-yl]-2-cyclohexyl-ethoxymethyl}-3-fluoro-benzoic] | 0.3 | 
O=C(O)c1ccc(COCC(C2CCCCC2)n2c(-c3ccc(Cl)cc3)nc3cc(F)c(F)cc32)cc1 (single isomer, unassigned; (+)) [Example 69, (+)-4-{2-[2-(4-Chloro-phenyl)-5,6-difluoro-benzoimidazol-1-yl]-2-cyclohexyl-ethoxymethyl}-benzoic acid] | 0.7 | 
COc1ccc(-c2nc3cc(F)c(F)cc3n2C(COc2ccc(C(=O)O)cn2)C2CCCCC2)c(OC)n1 (single isomer, unassigned; (+)) [Example 74, (+)-6-{2-Cyclohexyl-2-[2-(2,6-dimethoxy-pyridin-3-yl)-5,6-difluoro-benzoimidazol-1-yl]-ethoxy}-nicotinic acid] | 0.5 | 

Continued, in another order:

IC50 (read-out: h-IC50 Binding) [µM] | Structure (SMILES) | IC50 (h-IC50 Binding) [µM]
0.002 | CC(C)(Oc1c(F)cc(-c2nnn[nH]2)cc1F)C(C1CCCCC1)n1c(-c2ccc(Cl)cc2)nc2cc(F)c(F)cc21 (single isomer, unassigned) [Example 115, (+) or (−)-2-(4-Chloro-phenyl)-1-[1-cyclohexyl-2-[2,6-difluoro-4-(1H-tetrazol-5-yl)-phenoxy]-2-methyl-propyl]-5,6-difluoro-1H-benzoimidazole] | 
0.03 | O=C(O)c1ccc(OCC(C2CCCCC2)n2c(-c3ccc(Cl)cc3)nc3cc(F)c(F)cc32)nc1 (single isomer, unassigned; (+)) [Example 20, (+)-6-{2-[2-(4-Chloro-phenyl)-5,6-difluoro-benzoimidazol-1-yl]-2-cyclohexyl-ethoxy}-nicotinic acid] | 
0.02 | O=C(O)c1cnc(OCC(C2CCCCC2)n2c(-c3ccc(Cl)cc3)nc3cc(F)c(F)cc32)c(Cl)c1 (single isomer, unassigned; (+)) [Example 23, (+)-5-Chloro-6-{2-[2-(4-chloro-phenyl)-5,6-difluoro-benzoimidazol-1-yl]-2-cyclohexyl-ethoxy}-nicotinic acid] | 
0.001 | Cc1cc(-c2nnn[nH]2)cc(C)c1OCC(C1CCCCC1)n1c(-c2ccc(Cl)cc2)nc2cc(F)c(F)cc21 (single isomer, unassigned; (+)) [Example 72, (+)-2-(4-Chloro-phenyl)-1-{1-cyclohexyl-2-[2,6-dimethyl-4-(1H-tetrazol-5-yl)-phenoxy]-ethyl}-5,6-difluoro-1H-benzoimidazole] | 
0.03 | O=C(O)c1cc(F)c(OCC(C2CCCCC2)n2c(-c3ccc(Cl)cc3)nc3cc(F)c(F)cc32)c(Cl)c1 (single isomer, unassigned; (+)) [Example 78, (+)-3-Chloro-4-{2-[2-(4-chloro-phenyl)-5,6-difluoro-benzoimidazol-1-yl]-2-cyclohexyl-ethoxy}-5-fluoro-benzoic acid] | 
0.05 | Fc1cc2nc(-c3ccc(Cl)cc3)n(C(COc3ccc(-c4nnn[nH]4)cc3F)C3CCCCC3)c2cc1F (single isomer, unassigned; (+)) [Example 80, (+)-2-(4-Chloro-phenyl)-1-{1-cyclohexyl-2-[2-fluoro-4-(1H-tetrazol-5-yl)-phenoxy]-ethyl}-5,6-difluoro-1H-benzoimidazole] | 
0.0002 | COc1ccc(-c2nc3cc(F)c(F)cc3n2C(COc2c(C)cc(C(=O)O)cc2C)C2CCCCC2)c(OC)n1 (single isomer, unassigned; (+)) [Example 83, (+)-4-{2-Cyclohexyl-2-[2-(2,6-dimethoxy-pyridin-3-yl)-5,6-difluoro-benzoimidazol-1-yl]-ethoxy}-3,5-dimethyl-benzoic acid] | 
0.04 | O=C(O)c1cc(F)c(OCC(C2CCCCC2)n2c(-c3ccc(Cl)cc3)nc3cc(F)c(F)cc32)c(F)c1 (single isomer, unassigned; (+)) [Example 87, (+)-4-{2-[2-(4-Chloro-phenyl)-5,6-difluoro-benzoimidazol-1-yl]-2-cyclohexyl-ethoxy}-3,5-difluoro-benzoic acid] | 
